Entries after “also recorded” stand apart in the source; their conditions may differ.
Test system: LM2-4luc lymphatic metastases in SCID mice
Assay: experimental LM2-4luc lymphatic metastasis model (IV)
Assay type: in vivo, human LM2-4luc cells in CB-17 SCID mice
Conditions: n = 12; for progression of lymphatic metastases (bioluminescence): VT 250 ng/2d, SU pretreatment, Kruskal–Wallis, Fig2F–H
Description: (C and G) Photographs of typical metastases in the lungs and caudal lymphatics, respectively. […] Geometric means ± 95%CI are depicted in (D and H); P values were derived by one-way ANOVA (D) and Kruskal–Wallis test (H). […] TEXT PRINTED IN THE PICTURE: (A) Vasculotide (VT): Hazard ratio = 0.13 (95% CI, 0.03 to 0.63) | (A) SU+VT: Hazard ratio = 0.19 (95% CI, 0.04 to 0.81) DOUBTS OF THE COPYIST ABOUT THIS PICTURE: Vasculotide (VT), Hazard ratio: small print; 0.13 could be 0.15 or 0.18, and the CI limits 0.03 and 0.63 are uncertain in the digits 3/5/6/8 / SU+VT, Hazard ratio: small print; 0.19 could be 0.18 or 0.16, and the CI limits 0.04 and 0.81 are uncertain in the digits / Panel A: each hazard ratio is printed under a pair of legend entries (Vehicle / Vasculotide (VT), and Sunitinib (SU) / SU+VT). Assigning it to the VT-treated arm of each pair is my assumption.
In vivo experiments were performed in strict accordance with protocols approved by the Sunnybrook Research Institute Animal Care Committee, accredited by the Canadian Council of Animal Care. All surgical, imaging, and euthanasia procedures were performed under inhaled isoflurane anesthesia. Experimental metastasis models involved injections of 10^6 tumor cells, suspended in 200 μl serum-free DMEM, into the mouse tail vein. LM2-4^luc implantations were performed on 6 to 8-week-old female CB-17 SCID mice (Charles River Canada). […]
For in vivo BI: Mice were injected intraperitoneally with 150mg/kg luciferin (Promega) 10 minutes prior to and anesthetized with isofluorane just before luminescent pseudocolor imaging (uniform settings: CCD camera locked at -105 °C, exposure=60s, f/1, subject size=1.5cm, bin=8, FOV=23.2cm, full image correction) using the IVIS 200 Imaging System (Caliper/PerkinElmer). Using the Living Image software (v2.50.1, Xenogen), weekly images were analyzed under uniform color range on grayscale photographic overlay. Total fluxes (photons/sec) were quantified within consistent regions of interest and statistically compared ideally at a timepoint before any deaths have occurred. […]

Compound | progression of lymphatic metastases (bioluminescence) (listed as SU) | progression of lymphatic metastases (bioluminescence) | survival rates (VT, Fig2E, listed as VT)
CCN(CC)CCNC(=O)c1c(C)[nH]c(/C=C2\C(=O)Nc3ccc(F)cc32)c1C [sunitinib, reference compound] | did not similarly promote lymphatic metastases; also recorded: did not accelerate their progression | – | –
CHHHRHSF [Vasculotide, 4-armed maleimide-functionalized polyethylene glycol (PEG) backbone to link together four cysteine-capped T7 peptides, that is, CHHHRHSF] | – | no significant effect on survival rates (Fig2E) or the progression of lymphatic metastases | no significant effect on survival rates

Source: publication PMC4459817, “Vasculotide reduces endothelial permeability and tumor cell extravasation in the absence of binding to or agonistic activation of Tie2” (EMBO Molecular Medicine, 2015)
